This passage reports logP results from the OPERA property sets (Mansouri et al. 2018).

Molecules are shown by their SMILES. Where a SMILES comes first, the peptide text is derived from it.

Usually logP stands for the decadic logarithm of the partition coefficient of the neutral form, usually between octanol and water.

`CCCOc1ccccc1NC(=O)OCCN1CCCCC1`: the logP turned out to be 4.23. Next, `CC(=NNC(=O)c1ccccc1)c1cnccn1`: 1.9; `O=C(O)CCCCCON=C(c1ccnnc1)c1cccc(C(F)(F)F)c1`: 3.38; `CN1CCN(c2cc3c(cc2F)c(=O)c(C(=O)O)cn3C2CC2)CC1`: 0.15.

Compound `CC(Nc1[nH]cnc2ncnc1-2)c1ccccc1` (centres undefined) gave a logP of 2.58. Next, `CCCCOc1ccccc1NC(=O)OCCN1CCCCC1`: 4.79. Compound `CCCCCCNCc1ccc(C)cc1` yielded a logP of 4.96.

`CCOC(=O)NNc1ccccc1`: the logP amounted to 1.22. In the case of `O=C(NC(Cc1c[nH]c2ccccc12)C(=O)O)OCC1c2ccccc2-c2ccccc21` (centres undefined), the logP came out at 4.93. Compound `OCCCCNc1[nH]cnc2ncnc1-2` had a logP of 0.32.

`Cc1c(C)c2ccc3occ(C)c3c2oc1=O`: the logP is 3.34. As for `CCc1cccc(COC(=O)C2C(C=C(C)C)C2(C)C)c1` (centres undefined), the figure is 6.51; as for `COC(=O)C(C)NP(=O)(OCC1C=CC(n2cc(C)c(=O)[nH]c2=O)O1)Oc1cccc(I)c1` (centres undefined), 1.78; as for `CCOP(=O)(NC(C)CC)Oc1cc(C)ccc1[N+](=O)[O-]` (centres undefined), 2.73. Consider `O=c1ccc(/C=C/c2ccc(-n3cnc4c3CCCC4)cc2)n[nH]1`, for which the logP stood at 2.47. Next, `Cc1cc2c(ccc3c(C)cc(=O)n(C)c32)o1`: 3.08; `Nc1nnnn1-c1ccccc1`: 0.69; `O=C(O)Cc1ccc2c(c1)SCc1ccccc1C2=O`: 2.97.

Regarding `CNc1ncnc2c1ncn2C1OC(CO)C(O)C1O` (centres undefined), the logP was -0.52. As for `CC1CC2C3CCC4=CC(=O)C=CC4(C)C3(F)C(O)CC2(C)C1(O)C(=O)COC(=O)C1CCCCC1` (centres undefined), the figure is 4.46; as for `CCOC(=O)C1=C(C)NC(C)=C(C(=O)OC(C)C)C1c1cccc2c1OCO2` (centres undefined), 4.71.

For `CC(=O)OCOC(=O)N(C)N=Nc1ccc(Br)cc1`, the logP came out at 3.64. As for `CCC(C)C(N)C(=O)NC(C)C(=O)NC(C)C(=O)NC(C(=O)O)C(C)CC` (centres undefined) (H-IAAI-OH; configuration not given here), the figure is -2.82; as for `CNC(C)Cc1ccc(N)cc1` (centres undefined), 0.81. `CCCOc1cccc(CNc2[nH]cnc3ncnc2-3)c1`: the logP worked out at 3.12. As for `COc1ccc(C2=NC(C)(C(=O)O)CS2)c(O)c1` (centres undefined), the figure is 1.7.

Consider `CC(C)CC(N)C(=O)NC(CC(C)C)C(=O)N1CCCC1C(=O)O` (stereo not drawn) (H-Leu-Leu-Pro-OH; configuration not given here), for which the logP is -1.58. With `COc1ccc(CCNCC(O)COc2ccc(-c3nc(Br)c[nH]3)cc2Cl)cc1OC` (centres undefined), the logP was found to be 4.3.

For `CCCCOC1C(=O)NC(=O)NC1=[N+]=[N-]` (centres undefined), the logP was -0.55.

In turn, `Cc1cn(C2C=CC(COP3(=O)OCc4cc(Cl)ccc4O3)O2)c(=O)[nH]c1=O` (centres undefined) yielded a logP of 0.88. Next, `CCOC(=O)C(Cc1ccccc1)(Cc1ccccc1)S(=O)(=O)c1ccc([N+](=O)[O-])cc1`: 3.4; `CSCC(NC(C)=O)C(N)=O` (centres undefined): -0.6.

Take `O=c1cc(CSc2nc3ccccc3s2)occ1O`: the logP is 2.08. Next, `CC1(C)C=[N+]([O-])C(C)(C)C1`: -0.15; `CC(C)NCC(O)c1ccc([N+](=O)[O-])cc1` (centres undefined): 1.28; `CCO[PH](=O)O`: -2.7. In the case of `c1cc2cc3c(cc2cn1)OCO3`, the logP stood at 1.75.

In the case of `Cc1cc2c(C)c3ccc(=O)oc3cc2o1`, the logP was found to be 2.84. Next, `Cc1nc2ccccc2c(=O)n1CC(=O)N1CCCCC1`: 1.27; `CCNc1nc(N)nc(O)n1`: 1.08; `C=CCC(C)(C(=O)OCC)S(=O)(=O)c1ccc([N+](=O)[O-])cc1` (centres undefined): 2.3. As for `O=C1N=C(N2CCOCC2)CN1c1ccccc1`, the figure is 0.6.

`OCC1OC(n2cnc3c(NCCc4ccccc4)ncnc32)C(O)C1O` (centres undefined) gave a logP of 1.55. Turning to `CCOc1ccc(NC(=O)OC(C)c2ccccc2)cc1OCC` (centres undefined), the logP came out at 3.56.
